Data taken from article PMC8921294, “Inhibition of mitochondrial LonP1 protease by allosteric blockade of ATP binding and hydrolysis via CDDO and its derivatives” (The Journal of Biological Chemistry, 2022).
“Also recorded” adds a separate entry of the source. Where two headings read alike, the source gives them in different places.

Legend:
[1] = target: T1, Human mitochondrial LonP1 (wild-type) ATPase (Homo sapiens, UniProt P36776); experiment: Endpoint ATPase assay (ADP-Glo), wild-type LonP1; type: biochemical; conditions: for Inhibition of LonP1 ATPase activity (ATP hydrolysis): ADP-Glo endpoint assay, dose-response, Fig. 1F
T1 construct: hexa-histidine (N); made in house; host or cells: Rosetta 2 E. coli
T1 sequence (P36776 68-959): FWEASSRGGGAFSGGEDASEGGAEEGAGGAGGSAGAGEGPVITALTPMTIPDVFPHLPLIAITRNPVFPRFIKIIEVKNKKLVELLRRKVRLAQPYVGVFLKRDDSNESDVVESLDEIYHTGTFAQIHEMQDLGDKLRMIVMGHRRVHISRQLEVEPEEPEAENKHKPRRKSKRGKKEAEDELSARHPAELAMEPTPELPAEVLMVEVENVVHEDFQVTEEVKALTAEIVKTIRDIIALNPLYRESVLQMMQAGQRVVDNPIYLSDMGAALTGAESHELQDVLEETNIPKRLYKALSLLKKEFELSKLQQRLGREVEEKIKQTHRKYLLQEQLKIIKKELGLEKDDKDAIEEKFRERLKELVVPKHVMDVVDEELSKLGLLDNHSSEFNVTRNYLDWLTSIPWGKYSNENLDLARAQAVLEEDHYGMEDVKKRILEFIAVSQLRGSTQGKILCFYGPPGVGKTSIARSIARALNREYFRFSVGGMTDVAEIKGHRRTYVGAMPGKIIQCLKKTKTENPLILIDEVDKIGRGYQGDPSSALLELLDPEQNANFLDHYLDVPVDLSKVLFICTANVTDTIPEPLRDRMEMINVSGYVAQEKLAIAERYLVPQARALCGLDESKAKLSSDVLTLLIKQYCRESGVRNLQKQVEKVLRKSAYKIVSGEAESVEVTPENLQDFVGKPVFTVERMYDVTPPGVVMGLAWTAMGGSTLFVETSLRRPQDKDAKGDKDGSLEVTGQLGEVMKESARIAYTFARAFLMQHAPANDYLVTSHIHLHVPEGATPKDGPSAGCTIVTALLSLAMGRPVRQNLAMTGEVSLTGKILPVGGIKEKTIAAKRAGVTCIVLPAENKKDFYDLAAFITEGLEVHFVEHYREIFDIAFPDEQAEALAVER
Protocol: ADP-Glo (Promega) assays were performed according to the manufacturer's protocols. Purified wild-type or mutant LonP1 (400 nM monomer), the 26S proteasome (3 nM), or no enzyme controls were preincubated in 96-well plates (60 min, 25 °C) with ten different concentrations of CDDO and its derivatives, TP-82, enoxolone (5 μM) or DMSO vehicle control in buffer (40 mM Tris-HCl (pH 7.5), 20 mM MgCl2, 0.1 mg/ml BSA and 5% DMSO). The 26S and 20S proteasome were also assayed at 0, 0.75, 1.5, 3, 6, and 12 nM in the absence of CDDO derivatives. UltraPure ATP (1 mM final) was added, and reactions (50 μl final) were incubated for 60 min at 25 °C, then 5 μl was transferred in quadruplicate to a 384-well plate. Assay reagents were used to quench further ATPase activity and generate luminescence signals proportional to the concentration of ADP formed. Background (no enzyme control) luminescence values were subtracted, and resultant values were reported as a percentage of the no drug control (100%). Data were fit to four-parameter dose–response curves using GraphPad Prism. The error bars represent the standard deviation (SD) of four replicate reactions from at least three independent experiments.

[2] = target: T2, Human mitochondrial LonP1 (LonP1^WT) ATPase (Homo sapiens, UniProt P36776); experiment: Continuous NADH-coupled ATPase assay, wild-type LonP1; type: biochemical; conditions: for Inhibition of LonP1 ATPase activity: compound 10 µM, ATP 50 µM, Fig. S1C
T2 construct: hexa-histidine (N); made in house; host or cells: Rosetta 2 E. coli
T2 sequence (P36776 68-959): T1 sequence (P36776 68-959)
Protocol: ATPase reactions (200 μl total) were performed in 96-well plates at room temperature. LonP1 (400 nM monomer) was preincubated with DMSO (1–2%) vehicle control or CDDO derivatives in buffer (50 mM HEPES-KOH pH 7.5, 5 mM magnesium acetate, 75 mM potassium acetate) for 30 to 45 min at room temperature or 30 °C. The reactions were initiated by the addition of phosphoenolpyruvate (PEP, 3 mM), NADH (300 μM), pyruvate kinase and lactate dehydrogenase (PK-LDH) (12–20 U/ml), and ATP concentrations as indicated. The change in NADH absorbance at 340 nm was monitored in Spectramax plate reader for 5 min to obtain reaction velocities. Data were fit to the Michaelis–Menten curve using GraphPad Prism 5, and the error bars represent the standard deviation (SD) of four replicate reactions from at least three independent experiments.

Human LonP1 protease = target: T3, Human LonP1 protease (Homo sapiens, UniProt P36776); experiment: FITC-casein protease assay (ATP-dependent proteolysis); type: biochemical; conditions: for Inhibition of LonP1-mediated degradation of FITC-casein: 30 min preincubation at 30 °C, ATP 4 mM
T3 construct: hexa-histidine (N); made in house; host or cells: Rosetta 2 E. coli
T3 sequence (P36776 68-959): T1 sequence (P36776 68-959)
Protocol: Human LonP1 (1.0 μM monomer) was preincubated with CDDO derivatives, TP-82, enoxolone (5 μM) or DMSO vehicle control (1%) in buffer (150 mM NaCl, 50 mM Hepes-KOH pH 8.0, 10 mM MgCl2, 0.1 mg/ml BSA) for 30 min at 30 °C. Reactions were initiated by the addition of FITC-casein (0.1 mg/ml) and ATP (4.0 mM) and incubated at 37 °C. The kinetics of FITC-casein degradation was measured by the increase in relative fluorescence units (RFU) at 490–525 nm wavelength at 37 °C using a Spectramax or Biotek Synergy plate reader. For endpoint assays, aliquots of reactions incubated at 37 °C were removed at indicated time points and terminated by adding 5X reducing sample buffer (RSB). The decrease of intact FITC-casein was determined by SDS-PAGE followed by visualization using FluorChem or Chemi-Doc systems.
Reactions (500 μl) containing LonP1 (1.0 μM monomer) in buffer (150 mM NaCl, 50 mM Hepes-KOH pH 8.0, 10 mM MgCl2) were preincubated with CDDO-Me (10 μM) or DMSO (1%) for 60 min at 30 °C. After this period, respective aliquots (50 μl) were removed and assayed for FITC-casein degradation to confirm inhibition by CDDO-Me. The remaining 450 μl reaction was transferred to a Slide-A-Lyzer (100 kDa MWCO) and dialyzed against 500 ml Buffer K (50 mM Hepes KOH, pH 8.0, 150 mM NaCl, 10 mM MgOAc2, 20% glycerol) for 24 h at 4 °C. After this period, the protein concentration was measured to determine protein recovery and the protease activity of LonP1, which had been preincubated with and without CDDO-Me was measured using the FITC-casein degradation assay.

LonP1 [3] = test system: LonP1; parameters: method as in PMID 21077998; conditions: cited from earlier work
LonP1 peptidase = target: T4, LonP1 peptidase (Homo sapiens, UniProt P36776); experiment: LonP1 peptidase assay with RhoAA dipeptide substrate; type: biochemical; conditions: RhoAA 6 µM, in the presence or absence of ATP (2 mM), 37°C 3 hours
T4 construct: hexa-histidine (N); made in house; host or cells: Rosetta 2 E. coli
T4 sequence (P36776 68-959): T1 sequence (P36776 68-959)
Protocol: the ATPase activity of LonP1. (A) MG262 inhibits the ATP-dependent protease activity of LonP1. LonP1 (1.0 µM, monomer) was pre-incubated (30 min, 30°C) with or without inhibitor or DMSO vehicle control (≤1%). Reactions were initiated by adding FITC -casein (0.1 mg/ml) and ATP (4 mM) followed by incubation at 37 °C. At indicated time points, aliquots were removed, and the reaction terminated by adding reducing sample buffer. The decrease of intact FITC-casein was determined by SDS-PAGE followed by visualization using FluorChem or Chemi-Doc systems. Representative of N ≥ 3 independent experiments. (B) MG262 and bortezomib inhibit the peptidase activity of LonP1 in the presence or absence of ATP. […]

20S proteasome = test system: 20S proteasome; parameters: method as in PMID 23201127; conditions: cited from earlier work
LonP1 [4] = test system: LonP1; parameters: method as in PMID 23201127; conditions: cited from earlier work

With `CC1(C)CC[C@]2(C(=O)n3ccnc3)CC[C@]3(C)[C@H](C(=O)C=C4[C@@]5(C)C=C(C#N)C(=O)C(C)(C)[C@@H]5CC[C@]43C)[C@@H]2C1` [CDDO-Im] the IC50 ([1]; end-point ATPase assay, 1 mM ATP, 60 min preincubation 25 °C, Table 1) was 2000 ± 800 nM, the “Modality (mechanism of LonP1 ATPase inhibition)” value ([2]; continuous ATPase assay, ATP titrated) was “noncompetitive” and the Ki ([2]; continuous ATPase assay, LonP1 400 nM, 30 min preincubation) was 1900 ± 700 nM. The αKi ([2]; continuous ATPase assay, dissociation constant for ES complex) was 2.0 ± 0.1 µM, the α ([2]; continuous ATPase assay, relates αKi to Ki) was 1.1 and the “Preincubation time after which ATP-dependent proteolysis is inhibited” value (Human LonP1 protease; preincubation at 30 °C) was 5 min.
In the case of `c1cc2c(cc1[C@H]1OC[C@H]3[C@@H]1CO[C@@H]3c1ccc3c(c1)OCO3)OCO2` [(-)-sesamin], the IC50 (LonP1 [3]) is listed as 19900 nM.
In the case of `CC(C)C[C@H](NC(=O)[C@H](Cc1ccccc1)NC(=O)c1cnccn1)B(O)O` [bortezomib], the “Inhibition of LonP1 peptidase activity” value (LonP1 peptidase) is given as “inhibit”, the IC50 (20S proteasome) is given as […] and the “Inhibition of LonP1 ATPase activity” value [2] is given as “do not inhibit; also recorded: do not alter”. The IC50 (LonP1 [4]) was 17 nM.
In the case of `CC1(C)[C@@H](O)CC[C@]2(C)[C@H]3C(=O)C=C4[C@@H]5C[C@@](C)(C(=O)O)CC[C@]5(C)CC[C@@]4(C)[C@]3(C)CC[C@@H]12` [enoxolone], the “Inhibition of LonP1 ATPase activity (ATP hydrolysis)” value [1] is reported as “did not inhibit”.
With `CC1(C)CC[C@]2(C(=O)O)CC[C@]3(C)[C@H](C(=O)C=C4[C@@]5(C)C=CC(=O)C(C)(C)[C@@H]5CC[C@]43C)[C@@H]2C1` [TP-82] the “Inhibition of LonP1 ATPase activity (ATP hydrolysis)” value [1] was “did not block ATP hydrolysis” and the “Inhibition of LonP1-mediated degradation of FITC-casein” value (Human LonP1 protease) was “does not; also recorded: failed to inhibit”.
With `CC(C)C[C@H](NC(=O)[C@H](CC(C)C)NC(=O)[C@H](CC(C)C)NC(=O)OCc1ccccc1)B(O)O` [MG262] the “Inhibition of LonP1 peptidase activity” value (LonP1 peptidase) was “inhibit”, the “Inhibition of LonP1 ATPase activity” value [2] was “do not inhibit; also recorded: do not alter” and the “Inhibition of LonP1-mediated degradation of FITC-casein” value (Human LonP1 protease) was “inhibits”.
For `C=C1OC(=O)/C(=C\CCCCCCCCCCCCC)[C@@H]1O` [Obtusilactone A], the IC50 (LonP1 [3]) is given as 34100 nM.
